Tested on: total cells in bronchoalveolar lavage fluid
Assay: Total cell count in bronchoalveolar lavage fluid, PM10D respiratory injury inflammation model
Assay type: in vivo, Balb/c mice
Details: vitamin B5 inhaled at 6 mg/kg or more, compared to the induced group and the oral administration group
Experimental: As an experimental animal, Balb/c mice (male, 6 weeks old, body weight of 15 to 17 g) were purchased from Coretech after receiving approval from the Institutional Animal Care and Use Committee (IACUC). After acclimatization for one week in the breeding room of the KT&G Bio-Efficacy Evaluation Center (temperature 23±2° C., humidity 50±10%, 12-hour light/dark cycle), the mice were used in the experiment. A PM10D mixture was prepared by diluting 3 mg/mL of particulate matter 10 (hereinafter PM10) [ERM-CZ120, Sigma Aldrich, St. Louis, MO, USA] and 0.6 mg/mL of diesel particulate matter (hereinafter DEP) [NIST-2975, Sigma Aldrich, St. Louis, MO, USA] in 1% Alum (Aluminium Hydroxide, 239186, Sigma Aldrich, USA). […] The exposure amount of aerosol (mg/L) was calculated as a dose (mg/kg) using a calculation formula based on a prior art (Alexander et al., Inhal Toxicol. 2008 October; 20(13):1179-89.). […] After centrifugation (1500 RPM/4° C./10 min) of the obtained bronchoalveolar lavage fluid, the supernatant was stored in an ultra-low temperature freezer (−70° C.) to measure cytokines, and cells isolated from the bronchoalveolar lavage fluid were treated with ammonium-chloride-potassium buffer (ACK, A10492-01, Gibco, NY, USA) solution for 10 minutes to lyse red blood cells, and then washed again with phosphate buffered saline, and the total cell count was measured using a hematocytometer. […]

In the case of `CC(C)(CO)[C@@H](O)C(=O)NCCC(=O)O` [vitamin B5, pantothenic acid], the “Total cell count in bronchoalveolar lavage fluid (result in words)” value is reported as “reduced”.

Reference: patent US20250186378A1, “COMPOSITION INCLUDING VITAMIN B5 FOR IMPROVING RESPIRATORY HEALTH AND TREATING OR PREVENTING RESPIRATORY DISEASES, PHARMACEUTICAL COMPOSITION INCLUDING THE SAME FOR TREATING OR PREVENTING RESPIRATORY DISEASES, AND HEALTH FUNCTIONAL FOOD COMPOSITION INCLUDING THE SAME FOR IMPROVING RESPIRATORY …” (KT&G CORPORATION, priority 2023, published 2025)
